The record followed here is US12643879B2, “Functionalized heterocyclic compounds as modulators of stimulator of interferon genes (STING)” (RYVU THERAPEUTICS S.A., priority 2019, dated 2026).

Where a name gives a salt, the structure may show the parent alone.

Test [1] relates to NF-κB pathway in THP-1 dual cells. Kind of test: THP-1 Dual reporter assay, NF-κB pathway (SEAP). In kind it is cell-based. The following applies: Homo sapiens, THP1-Dual; 18 h stimulation, absorbance at 630 or 655 nm; read-out: THP1 Dual EC50 (μM) NFkB. The method, then: (§1) Compounds of the present invention were tested for their activity using THP-1 dual cells (Invivogen, cat no. thpd-nfis) allowing for simultaneous study of NF-κB pathway and the interferon regulatory factor (IRF) pathway. THP-1 dual cells contain luciferase reporter gene under the control of an ISG54 (interferon-stimulated gene) minimal promoter in conjunction with five interferon-stimulated response elements and a secreted embryonic alkaline phosphatase reporter gene under the control an IFN (interferon)-β minimal promoter fused to five copies of the NF-κB consensus transcriptional response element with three copies of the c-Rel binding site. Following 18 h of stimulation with STING agonist, medium was collected and transferred onto fresh cell culture plate. To verify activity of the IRF pathway, luminescence activity was measured with standard laboratory plate reader immediately after addition 10 μl of the medium to 40 or 50 μl of luminescence reagent (Invivogen, cat. No. rep-qlc2). To verify activity of NF-κB pathway, 10 or 20 μl of the medium was mixed with 80 μl of a detection medium (Invivogen, cat. No. rep-qb2) and incubated for 1 or 2 hours at 37° C. in a humidified atmosphere containing 5% CO2. Next, absorbance at 630 or 655 nm was recorded using standard laboratory plate reader.

The subject of test [2] is interferon regulatory factor (IRF) pathway in THP-1 dual cells. Kind of test: THP-1 Dual reporter assay, IRF pathway (luciferase). The following applies: Homo sapiens, THP1-Dual; 18 h stimulation, luminescence; read-out: THP1 Dual EC50 (μM) IRF. The format is cell-based. The method, then: as §1
For orientation: A reporter such as luciferase makes a cellular process visible.

The EC50 is the concentration needed to bring the measured effect to its halfway point. On to `Cc1cc(CN(Cc2cn(C3CC3)c3cc(OCCO)c(F)cc3c2=O)[C@H]2CCCN(c3ccc(C4CC4)nc3)C2)ccn1` [Example 100, 1-cyclopropyl-3-({[(3S)-1-(6-cyclopropylpyridin-3-yl)piperidin-3-yl][(2-methylpyridin-4-yl)methyl]amino}methyl)-6-fluoro-7-(2-hydroxyethoxy)-1,4-dihydroquinolin-4-one], for which the EC50 in test [1] and in test [2] was below 1 µM throughout.

Regarding `Cc1ccc(N2CCC[C@H](N(Cc3ccnc(C)c3)Cc3cn(C4CC4)c4cc(N5CCC(CO)C5)c(F)cc4c3=O)C2)cn1` (stereo partly drawn) [Example 79, 1-cyclopropyl-6-fluoro-7-[3-(hydroxymethyl)pyrrolidin-1-yl]-3-({[(3S)-1-(6-methylpyridin-3-yl)piperidin-3-yl][(2-methylpyridin-4-yl)methyl]amino}methyl)-1,4-dihydroquinolin-4-one hydrochloride], the EC50 in test [1] and in test [2] was below 1 µM throughout.

`C#CCOCCOCCOCCOCCOCCC(=O)Nc1ccc(COC(=O)N(C)CCOc2cc3c(cc2F)c(=O)c(CN(Cc2ccnc(C)c2)[C@H]2CCCN(c4ccc(C)nc4)C2)cn3C2CC2)cc1` [Example 11F, [4-(4,7,10,13,16-pentaoxanonadec-18-ynamido)phenyl]methyl N-(2-{[1-cyclopropyl-6-fluoro-3-({[(3S)-1-(6-methylpyridin-3-yl)piperidin-3-yl][(2-methylpyridin-4-yl)methyl]amino}methyl)-4-oxo-1,4-dihydroquinolin-7-yl]oxy}ethyl)-N-methylcarbamate]: the EC50 in test [1] and in test [2] was below 1 µM each time.

`Cc1ccc(N2CCC[C@H](N(Cc3ccnc(C)c3)Cc3cn(C4CC4)c4cc(OCCN(C)C(=O)CCOCCOCCOCCC(=O)O)c(F)cc4c3=O)C2)cn1` [Example 11G, 3-[2-(2-{2-[(2-{[1-cyclopropyl-6-fluoro-3-({[(3S)-1-(6-methylpyridin-3-yl)piperidin-3-yl][(2-methylpyridin-4-yl)methyl]amino}methyl)-4-oxo-1,4-dihydroquinolin-7-yl]oxy}ethyl)(methyl)carbamoyl]ethoxy}ethoxy)ethoxy]propanoic acid formate]: the EC50 in test [1] and in test [2] was 1 to 10 µM throughout.

As for `C#CCOCCOCCOCCOCCOCCC(=O)Nc1ccc(CNC(=O)OCCOc2cc3c(cc2F)c(=O)c(CN(Cc2ccnc(C)c2)[C@H]2CCCN(c4cccnc4)C2)cn3C2CC2)cc1` [Example 84A, 2-{[1-cyclopropyl-6-fluoro-3-({[(2-methylpyridin-4-yl)methyl][(3S)-1-(pyridin-3-yl)piperidin-3-yl]amino}methyl)-4-oxo-1,4-dihydroquinolin-7-yl]oxy}ethyl N-{[4-(4,7,10,13,16-pentaoxanonadec-18-ynamido)phenyl]methyl}carbamate], the EC50 in test [1] and in test [2] was below 1 µM in each case.

On to `C#CCOCCOCCOCCOCCOCCC(=O)OCCOc1cc2c(cc1F)c(=O)c(CN(Cc1ccnc(C)c1)[C@H]1CCCN(c3ccc(C)nc3)C1)cn2C1CC1` [Example 47A, 2-{[1-cyclopropyl-6-fluoro-3-({[(3S)-1-(6-methylpyridin-3-yl)piperidin-3-yl][(2-methylpyridin-4-yl)methyl]amino}methyl)-4-oxo-1,4-dihydroquinolin-7-yl]oxy}ethyl 4,7,10,13,16-pentaoxanonadec-18-ynoate], for which the EC50 in test [1] and in test [2] was below 1 µM in each case.

Take `Cc1ccc(N2CCC[C@H](N(Cc3ccnc(C)c3)Cc3cn(C4CC4)c4cc(OCCN(C)C(=O)COCCOCCN)c(F)cc4c3=O)C2)cn1` [Example 11A, 2-[2-(2-aminoethoxy)ethoxy]-N-(2-{[1-cyclopropyl-6-fluoro-3-({[(3S)-1-(6-methylpyridin-3-yl)piperidin-3-yl][(2-methylpyridin-4-yl)methyl]amino}methyl)-4-oxo-1,4-dihydroquinolin-7-yl]oxy}ethyl)-N-methylacetamide]: the EC50 in test [1] and in test [2] was 1 to 10 µM throughout.

For `Cc1ccc(N2CCC[C@H](N(Cc3ccnc(C)c3)Cc3cn(C(C)C)c4cc(N5C[C@@H](O)[C@@H](O)C5)ccc4c3=O)C2)cn1` [Example 54, 7-[(3R,4S)-3,4-dihydroxypyrrolidin-1-yl]-3-({[(3S)-1-(6-methylpyridin-3-yl)piperidin-3-yl][(2-methylpyridin-4-yl)methyl]amino}methyl)-1-(propan-2-yl)-1,4-dihydroquinolin-4-one], the EC50 is 1 to 10 µM in test [1] and below 1 µM in test [2].

As to `Cc1cc(CN(Cc2cn(C3CC3)c3cc(OCCO)c(F)cc3c2=O)[C@H]2CCCN(c3ccc(N(C)C)nc3)C2)ccn1` [Example 92, 1-cyclopropyl-3-({[(3S)-1-[6-(dimethylamino)pyridin-3-yl]piperidin-3-yl][(2-methylpyridin-4-yl)methyl]amino}methyl)-6-fluoro-7-(2-hydroxyethoxy)-1,4-dihydroquinolin-4-one hydrochloride], the EC50 in test [1] and in test [2] was below 1 µM in each case.

Turning to `Cc1ccc(N2CCC[C@H](N(Cc3ccnc(C)c3)Cc3cn(C4CC4)c4cc(OCCN(C)CCOCCOCCOCCOCCN)c(F)cc4c3=O)C2)cn1` [Example 11C, 7-[(1-amino-15-methyl-3,6,9,12-tetraoxa-15-azaheptadecan-17-yl)oxy]-1-cyclopropyl-6-fluoro-3-({[(3S)-1-(6-methylpyridin-3-yl)piperidin-3-yl][(2-methylpyridin-4-yl)methyl]amino}methyl)-1,4-dihydroquinolin-4-one], the EC50 in test [1] and in test [2] was 1 to 10 µM throughout.

As for `Cc1cc(CN(Cc2cn(C3CC3)c3cc(N4CCC[C@H](O)C4)c(F)cc3c2=O)[C@H]2CCCN(c3cnccn3)C2)ccn1` [Example 98, 1-cyclopropyl-6-fluoro-7-[(3S)-3-hydroxypiperidin-1-yl]-3-({[(2-methylpyridin-4-yl)methyl][(3S)-1-(pyrazin-2-yl)piperidin-3-yl]amino}methyl)-1,4-dihydroquinolin-4-one hydrochoride], the EC50 in test [1] and in test [2] was below 1 µM in each case.

Turning to `Cc1ccc(N2CCC[C@H](N(Cc3ccnc(C)c3)Cc3cn(C4CC4)c4cc(N5CCN(CCO)CC5)c(F)cc4c3=O)C2)cn1` [Example 70, 1-cyclopropyl-6-fluoro-7-[4-(2-hydroxyethyl)piperazin-1-yl]-3-({[(3S)-1-(6-methylpyridin-3-yl)piperidin-3-yl][(2-methylpyridin-4-yl)methyl]amino}methyl)-1,4-dihydroquinolin-4-one], the EC50 in test [1] and in test [2] was below 1 µM each time.

For `Cc1cc(CN(Cc2c[nH]c3ccccc3c2=O)[C@H]2CCCN(c3ccc(N)nc3)C2)ccn1` [Example 38, 3-({[(3S)-1-(6-aminopyridin-3-yl)piperidin-3-yl][(2-methylpyridin-4-yl)methyl]amino}methyl)-1,4-dihydroquinolin-4-one], the EC50 in test [1] and in test [2] was below 1 µM each time.

`Cc1ccc(N2CCC[C@H](N(Cc3ccnc(C)c3)Cc3cn(C4CC4)c4cc(N5CCO[C@@H](CO)C5)c(F)cc4c3=O)C2)cn1` (single isomer, unassigned) [Example 72]: the EC50 in test [1] and in test [2] was below 1 µM throughout.

On to `Cc1cc(CN(Cc2cn(C3CC3)c3cc(N4CC[C@@H](CO)C4)c(F)cc3c2=O)[C@H]2CCCN(c3cnccn3)C2)ccn1` [Example 91, 1-cyclopropyl-6-fluoro-7-[(3R)-3-(hydroxymethyl)pyrrolidin-1-yl]-3-({[(2-methylpyridin-4-yl)methyl][(3S)-1-(pyrazin-2-yl)piperidin-3-yl]amino}methyl)-1,4-dihydroquinolin-4-one hydrochloride], for which the EC50 in test [1] and in test [2] was below 1 µM in each case.

On to `Cc1cc(CN(Cc2cn(C)c3ccccc3c2=O)[C@H]2CCCN(c3ccc(OCCO)nc3)C2)ccn1` [Example 101, 3-({[(3S)-1-[6-(2-hydroxyethoxy)pyridin-3-yl]piperidin-3-yl][(2-methylpyridin-4-yl)methyl]amino}methyl)-1-methyl-1,4-dihydroquinolin-4-one], for which the EC50 in test [1] and in test [2] was 1 to 10 µM in each case.

Turning to `Cc1cnc(N2CCC[C@H](N(Cc3ccnc(C)c3)Cc3cn(C4CC4)c4cc(N5CCC[C@H](O)C5)c(F)cc4c3=O)C2)cn1` [Example 81, 1-cyclopropyl-6-fluoro-7-[(3S)-3-hydroxypiperidin-1-yl]-3-({[(3S)-1-(5-methylpyrazin-2-yl)piperidin-3-yl][(2-methylpyridin-4-yl)methyl]amino}methyl)-1,4-dihydroquinolin-4-one], the EC50 in test [1] and in test [2] was below 1 µM in each case.

Take `Cc1ccc(N2CCC[C@H](N(Cc3ccnc(C)c3)Cc3cn(C4CC4)c4cc(N5CC[C@H](CNC(=O)CCOCCOCCOCCOCCN)C5)c(F)cc4c3=O)C2)cn1` [Example 15A, 1-amino-N-{[(3R)-1-[1-cyclopropyl-6-fluoro-3-({[(3S)-1-(6-methylpyridin-3-yl)piperidin-3-yl][(2-methylpyridin-4-yl)methyl]amino}methyl)-4-oxo-1,4-dihydroquinolin-7-yl]pyrrolidin-3-yl]methyl}-3,6,9,12-tetraoxapentadecan-15-amide]: the EC50 in test [1] and in test [2] was 1 to 10 µM throughout.
